Measured values reported in patent US10899769B2, “Imidazopiperazinone inhibitors of transcription activating proteins” (Board of Regents, The University of Texas System, priority 2018, dated 2021).

Key:
[1] = target: GST-CBP(1081-1197) bromodomain (Homo sapiens (Human), UniProt Q92793); test: CBP AlphaScreen Assay; conditions: binding to biotin-H4(1-21) Ac-K5/8/12/16
Method in brief: (§1)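 AlphaScreen binding of GST-bromodomain to biotin-H4(1-21) Ac-K5/8/12/16: 5 nM CBP with 20 nM peptide, or 2.5 nM BRD4 with 10 nM peptide, in 50 mM HEPES 7.5, […], 1 mM TCEP, 0.003% Tween-20. Compound preincubated 30 min, then beads 2 h, room temperature. IC50 from variable-slope fit.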

[2] = target: BRD4(49-170) bromodomain (Homo sapiens (Human), UniProt O60885); test: BRD4 AlphaScreen Assay; conditions: binding to biotin-H4(1-21) Ac-K5/8/12/16
Method in brief: as §1

Sequence of GST-CBP(1081-1197) bromodomain (Q92793 1081-1197): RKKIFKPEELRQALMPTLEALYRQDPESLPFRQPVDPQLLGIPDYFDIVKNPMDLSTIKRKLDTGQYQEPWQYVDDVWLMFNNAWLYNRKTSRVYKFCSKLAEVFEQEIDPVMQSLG

| IC50 [1] | IC50 [2] | Compound |
| --- | --- | --- |
| 63 nM | 25000 nM | CN1Cc2c(-c3cccc4nc(-c5cnn(C)c5)c(C#N)cc34)nc(C3CCOCC3)n2CC1=O [Example 92, 2-(1-methyl-1H-pyrazol-4-yl)-5-(7-methyl-6-oxo-3-(tetrahydro-2H-pyran-4-yl)-5,6,7,8-tetrahydroimidazo[1,5-a]pyrazin-1-yl)quinoline-3-carbonitrile] |
| 230 nM | 11700 nM | CC1C(=O)N(C)Cc2c(-c3cccc4nc(-c5cnn(C)c5)c(C(F)F)cc34)nc(C3CCN(CCO)CC3)n21 (centres unmarked) [Example 84, 1-(3-(difluoromethyl)-2-(1-methyl-1H-pyrazol-4-yl)quinolin-5-yl)-3-(1-(2-hydroxyethyl)piperidin-4-yl)-5,7-dimethyl-7,8-dihydroimidazo[1,5-a] pyrazin-6(5H)-one] |
| 155 nM | 1180 nM | CC1C(=O)N(C)Cc2c(-c3ccc4c(cnn4C)c3)nc(C3CC3)n21 (centres unmarked) [Example 50, 3-cyclopropyl-5,7-dimethyl-1-(1-methyl-1H-indazol-5-yl)-7,8-dihydroimidazo[1,5-a] pyrazin-6(5H)-one] |
| 153 nM | 9630 nM | CC1C(=O)N(C)Cc2c(-c3cccc4nc(-c5cnn(C)c5)c(C(F)F)cc34)nc(C3CCN(CCF)CC3)n21 (centres unmarked) [Example 81, 1-(3-(difluoromethyl)-2-(1-methyl-1H-pyrazol-4-yl)quinolin-5-yl)-3-(1-(2-fluoroethyl)piperidin-4-yl)-5,7-dimethyl-7,8-dihydroimidazo[1,5-a] pyrazin-6(5H)-one] |
| 181 nM | 12600 nM | Cc1nn(C)cc1-c1cc2cccc(-c3nc(C4CCOCC4)n4c3CN(C)C(=O)C4)c2cn1 [Example 96, 1-(3-(1,3-dimethyl-1H-pyrazol-4-yl)isoquinolin-8-yl)-7-methyl-3-(tetrahydro-2H-pyran-4-yl)-7,8-dihydroimidazo[1,5-a] pyrazin-6(5H)-one] |
| 219 nM | 25000 nM | CN1Cc2c(-c3c(F)ccc4cc(C5CCOCC5)ncc34)nc(C3CCOCC3)n2CC1=O [Example 101, 1-(7-fluoro-3-(tetrahydro-2H-pyran-4-yl)isoquinolin-8-yl)-7-methyl-3-(tetrahydro-2H-pyran-4-yl)-7,8-dihydroimidazo[1,5-a] pyrazin-6(5H)-one] |
| 5 nM | 163 nM | Cc1ncc(-c2nc3cccc(-c4nc(C5CC5)n5c4CN(C)C(=O)C5C)c3cc2C(F)F)s1 (centres unmarked) [Example 68, 3-cyclopropyl-1-(3-(difluoromethyl)-2-(2-methylthiazol-5-yl)quinolin-5-yl)-5,7-dimethyl-7,8-dihydroimidazo[1,5-a] pyrazin-6(5H)-one] |
| 357 nM | 25000 nM | CN1Cc2c(-c3cccc4nc(-c5cnn(C)c5)c(C(F)F)cc34)nc(C3CCOCC3)n2CC1=O [Example 93, 1-(3-(difluoromethyl)-2-(1-methyl-1H-pyrazol-4-yl)quinolin-5-yl)-7-methyl-3-(tetrahydro-2H-pyran-4-yl)-7,8-dihydroimidazo [1,5-a] pyrazin-6(5H)-one] |
| 78 nM | 24100 nM | CC1C(=O)N(C)Cc2c(-c3cccc4cc(-c5ccn(C)n5)ncc34)nc(C3CCOCC3)n21 (centres unmarked) [Example 85, 5,7-dimethyl-1-(3-(1-methyl-1H-pyrazol-3-yl)isoquinolin-8-yl)-3-(tetrahydro-2H-pyran-4-yl)-7,8-dihydroimidazo[1,5-a] pyrazin-6(5H)-one] |
| 323 nM | 25000 nM | Cc1nn(C)cc1-c1cc2ccc(F)c(-c3nc(C4CCOCC4)n4c3CN(C)C(=O)C4)c2cn1 [Example 97, 1-(3-(1,3-dimethyl-1H-pyrazol-4-yl)-7-fluoroisoquinolin-8-yl)-7-methyl-3-(tetrahydro-2H-pyran-4-yl)-7,8-dihydroimidazo[1,5-a] pyrazin-6(5H)-one] |
| 172 nM | 12000 nM | CC1C(=O)N(C)Cc2c(-c3cccc4nc(-c5cnn(C)c5)c(C(F)F)cc34)nc(C3CCNCC3)n21 (centres unmarked) [Example 75, 1-(3-(difluoromethyl)-2-(1-methyl-1H-pyrazol-4-yl)quinolin-5-yl)-5,7-dimethyl-3-(piperidin-4-yl)-7,8-dihydroimidazo[1,5-a] pyrazin-6(5H)-one] |

Continued, compound first:

| Compound | IC50 [1] | IC50 [2] |
| --- | --- | --- |
| CNC(=O)N1CC(c2nc(-c3cccc4nc(-c5cnn(C)c5)c(C(F)F)cc34)c3n2C(C)C(=O)N(C)C3)C1 (centres unmarked) [Example 24, 3-(1-(3-(Difluoromethyl)-2-(1-methyl-1H-pyrazol-4-yl)quinolin-5-yl)-5,7-dimethyl-6-oxo-5,6,7,8-tetrahydroimidazo[1,5-a]pyrazin-3-yl)-N-methylazetidine-1-carboxamide] | 81 nM | 4890 nM |
| CC1C(=O)N(C)Cc2c(-c3cccc4nc(-c5cnn(C)c5)c(C#N)cc34)nc(C3CCOCC3)n21 (single isomer, unassigned) [Example 8b, 5-(5,7-dimethyl-6-oxo-3-(tetrahydro-2H-pyran-4-yl)-5,6,7,8-tetrahydroimidazo[1,5-a]pyrazin-1-yl)-2-(1-methyl-1H-pyrazol-4-yl)quinoline-3-carbonitrile] | 2 nM | 332 nM |
| CC1C(=O)N(C)Cc2c(-c3cccc4nc(-c5cnn(C)c5)c(C(F)F)cc34)nc(C3CN(S(C)(=O)=O)C3)n21 (centres unmarked) [Example 20, 1-(3-(Difluoromethyl)-2-(1-methyl-1H-pyrazol-4-yl)quinolin-5-yl)-5,7-dimethyl-3-(1-(methylsulfonyl)azetidin-3-yl)-7,8-dihydroimidazo[1,5-a]pyrazin-6(5H)-one] | 37 nM | 8570 nM |
| CC1C(=O)N(C)Cc2c(-c3cccc4nc(-c5cnn(C)c5)c(C(F)F)cc34)nc(C3CN(CCO)C3)n21 (centres unmarked) [Example 28, 1-(3-(Difluoromethyl)-2-(1-methyl-1H-pyrazol-4-yl)quinolin-5-yl)-3-(1-(2-hydroxyethyl)azetidin-3-yl)-5,7-dimethyl-7,8-dihydroimidazo[1,5-a]pyrazin-6(5H)-one] | 123 nM | 9370 nM |
| CC1C(=O)N(C)Cc2c(N3CCCc4cc(-c5cnn(C)c5)c(C(F)F)cc43)nc(C3CC3)n21 (centres unmarked) [Example 49, 3-cyclopropyl-1-(7-(difluoromethyl)-6-(1-methyl-1H-pyrazol-4-yl)-3,4-dihydroquinolin-1(2H)-yl)-5,7-dimethyl-7,8-dihydroimidazo[1,5-a] pyrazin-6(5H)-one] | 1 nM | 332 nM |
| CN1Cc2c(N3CCCc4cc(-c5cnn(C)c5)c(C(F)F)cc43)nc(C3CC3)n2CC1=O [Example 1, 3-cyclopropyl-1-(7-(difluoromethyl)-6-(1-methyl-1H-pyrazol-4-yl)-3,4-dihydroquinolin-1(2H)-yl)-7-methyl-7,8-dihydroimidazo[1,5-a]pyrazin-6(5H)-one] | 7 nM | 8810 nM |
| Cc1cn(-c2cc3ccc(F)c(-c4nc(C5CCOCC5)n5c4CN(C)C(=O)C5C)c3cn2)cn1 (single isomer, unassigned) [Example 33b, 1-(7-fluoro-3-(4-methyl-1H-imidazol-1-yl)isoquinolin-8-yl)-5,7-dimethyl-3-(tetrahydro-2H-pyran-4-yl)-7,8-dihydroimidazo[1,5-a]pyrazin-6(5H)-one] | 6 nM | 2120 nM |
| CC1C(=O)N(C)Cc2c(-c3cccc4nc(-c5cnn(C)c5)c(C(F)(F)F)cc34)nc(C3CCOCC3)n21 (single isomer, unassigned) [Example 26a, 5,7-Dimethyl-1-(2-(1-methyl-1H-pyrazol-4-yl)-3-(trifluoromethyl)quinolin-5-yl)-3-(tetrahydro-2H-pyran-4-yl)-7,8-dihydroimidazo[1,5-a]pyrazin-6(5H)-one] | 2 nM | 193 nM |
| CC1C(=O)N(C)Cc2c(-c3cccc4cc(-c5nn[nH]n5)ncc34)nc(C3CC3)n21 (centres unmarked) [Example 17, 1-(3-(2H-Tetrazol-5-yl)isoquinolin-8-yl)-3-cyclopropyl-5,7-dimethyl-7,8-dihydroimidazo[1,5-a]pyrazin-6(5H)-one] | 2 nM | 3030 nM |
| CC1C(=O)N(C)Cc2c(-c3cccc4nc(-c5cnn(C)c5)c(C(F)F)cc34)nc(C3(C)CCOCC3)n21 (single isomer, unassigned) [Example 32b, 1-(3-(Difluoromethyl)-2-(1-methyl-1H-pyrazol-4-yl)quinolin-5-yl)-5,7-dimethyl-3-(4-methyltetrahydro-2H-pyran-4-yl)-7,8-dihydroimidazo[1,5-a]pyrazin-6(5H)-one] | 2 nM | 351 nM |
| CC1C(=O)N(C)Cc2c(-c3cccc4nc(-c5nsc(=O)[nH]5)c(C(F)F)cc34)nc(C3CC3)n21 (centres unmarked) [Example 46, 3-(5-(3-Cyclopropyl-5,7-dimethyl-6-oxo-5,6,7,8-tetrahydroimidazo[1,5-a]pyrazin-1-yl)-3-(difluoromethyl)quinolin-2-yl)-1,2,4-thiadiazol-5(4H)-one] | 2 nM | 341 nM |
| CC1C(=O)N(C)Cc2c(-c3cccc4nc(-c5cnn(C)c5)c(C#N)cc34)nc(C3CCOCC3)n21 (single isomer, unassigned) [Example 8a, 5-(5,7-dimethyl-6-oxo-3-(tetrahydro-2H-pyran-4-yl)-5,6,7,8-tetrahydroimidazo[1,5-a]pyrazin-1-yl)-2-(1-methyl-1H-pyrazol-4-yl)quinoline-3-carbonitrile] | 513 nM | ≥ 25000 nM |
| Cc1cn(-c2nc3cccc(-c4nc(C5CC5)n5c4CN(C)C(=O)C5C)c3cc2C(F)F)cn1 (centres unmarked) [Example 11, 3-cyclopropyl-1-(3-(difluoromethyl)-2-(4-methyl-1H-imidazol-1-yl)quinolin-5-yl)-5,7-dimethyl-7,8-dihydroimidazo[1,5-a]pyrazin-6(5H)-one] | 4 nM | 268 nM |
| Cc1ncc(-c2cc3cccc(-c4nc(C5CCOCC5)n5c4CN(C)C(=O)C5C)c3cn2)s1 (single isomer, unassigned) [Example 31a, 5,7-Dimethyl-1-(3-(2-methylthiazol-5-yl)isoquinolin-8-yl)-3-(tetrahydro-2H-pyran-4-yl)-7,8-dihydroimidazo[1,5-a]pyrazin-6(5H)-one] | 38 nM | 2690 nM |
